1 molecule from article PMC10315211 (Molecular microbiology, 2023) can be followed below.

In the experiment the target is CpdAEc (N-His-CpdAEc) (Escherichia coli, UniProt P0AEW4). The experiment is classed as biochemical. The following applies: 50 mM Tris-HCl pH 8.0, 0.14 M NaCl, 2 mM MgCl2, room temperature.
CpdAEc (N-His-CpdAEc), sequence (P0AEW4 whole entry): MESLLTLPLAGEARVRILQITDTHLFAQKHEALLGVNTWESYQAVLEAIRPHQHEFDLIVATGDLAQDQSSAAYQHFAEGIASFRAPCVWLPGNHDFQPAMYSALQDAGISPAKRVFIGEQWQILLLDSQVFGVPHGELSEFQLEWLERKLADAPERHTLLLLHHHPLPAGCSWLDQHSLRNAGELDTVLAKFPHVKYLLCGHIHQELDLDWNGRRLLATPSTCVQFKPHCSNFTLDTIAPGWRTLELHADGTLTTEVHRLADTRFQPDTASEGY

Turning to `C[N+](C)(C)CCOP(=O)([O-])OC[C@H](O)CO` [glycerophosphocholine], the “choline oxidase / HRP coupled Amplex Red fluorometric assay” value is “both Rv0805 and CpdAEc produced choline and Gly3P from glycerophosphocholine (GPC)”.
